The record followed here is ChEMBL document CHEMBL6083220, “Chemically induced degradation of PRC2 complex by EZH2-Targeted PROTACs via a Ubiquitin-Proteasome pathway” (Bioorg Med Chem Lett, 2024).

As a reminder, the pIC50 is the IC50 on a negative log10 scale, so that one unit is a factor of ten.

The nature of test [1]: Antiproliferative activity against human MINO cells by MTT assay. It counts as functional, cell-based. (Tetrazolium dyes change colour on reduction, which living cells bring about.)
In test [2] the test system is OCI-Ly7. Briefly: Antiproliferative activity against human OCILY7 cells by MTT assay. It counts as functional, cell-based.

pIC50: −log10 of the molar value.

`CCN(c1cc(-c2ccc(CN3CCN(CCCN4CC(CNc5cccc6c5C(=O)N(C5CCC(=O)NC5=O)C6=O)C4)CC3)cc2)cc(C(=O)NCc2c(C)cc(C)[nH]c2=O)c1C)C1CCOCC1` (stereo not given): the pIC50 in test [1] is 7.16; in test [2], 7.66.
`CCN(c1cc(-c2ccc(CN3CCN(C(=O)/C=C/C4CCC(CNc5cccc6c5C(=O)N(C5CCC(=O)NC5=O)C6=O)CC4)CC3)cc2)cc(C(=O)NCc2c(C)cc(C)[nH]c2=O)c1C)C1CCOCC1` (stereo not given): the pIC50 in test [1] was 7.62; in test [2] it was 7.40.
Consider `CCN(c1cc(-c2ccc(CN3CCN(C(=O)CN4CCC(Nc5cccc6c5C(=O)N(C5CCC(=O)NC5=O)C6=O)CC4)CC3)cc2)cc(C(=O)NCc2c(C)cc(C)[nH]c2=O)c1C)C1CCOCC1` (stereo not given), for which the pIC50 in test [1] is 6.28; in test [2], 7.66.
Taken in the same sequence, the figures for `CCN(c1cc(-c2ccc(CN3CCN(C(=O)CCC4CC(CNc5cccc6c5C(=O)N(C5CCC(=O)NC5=O)C6=O)C4)CC3)cc2)cc(C(=O)NCc2c(C)cc(C)[nH]c2=O)c1C)C1CCOCC1` (stereo not given) were 7.32 and 8.00.
For `CCN(c1cc(-c2ccc(CN3CCN(C(=O)/C=C/C4CC(CNc5cccc6c5C(=O)N(C5CCC(=O)NC5=O)C6=O)C4)CC3)cc2)cc(C(=O)NCc2c(C)cc(C)[nH]c2=O)c1C)C1CCOCC1` (stereo not given), the pIC50 in test [1] was 6.72; in test [2] it was 8.22.
In the case of `CCN(c1cc(-c2ccc(CN3CCN(C(=O)CN4CCC(CNc5cccc6c5C(=O)N(C5CCC(=O)NC5=O)C6=O)C4)CC3)cc2)cc(C(=O)NCc2c(C)cc(C)[nH]c2=O)c1C)C1CCOCC1` (stereo not given), the negative-log IC50 (pIC50) is 5.49 in test [1] and 5.67 in test [2].
With `CCN(c1cc(-c2ccc(CN3CCN(C(=O)C4CCN(C5CN(c6cccc7c6C(=O)N(C6CCC(=O)NC6=O)C7=O)C5)CC4)CC3)cc2)cc(C(=O)NCc2c(C)cc(C)[nH]c2=O)c1C)C1CCOCC1` (stereo not given), the pIC50 was 5.61 in test [1] and 4.98 in test [2].
Taken in the same sequence, the figures for `CCN(c1cc(-c2ccc(CN3CCN(C(=O)CN4CCN(c5cccc6c5C(=O)N(C5CCC(=O)NC5=O)C6=O)CC4)CC3)cc2)cc(C(=O)NCc2c(C)cc(C)[nH]c2=O)c1C)C1CCOCC1` (stereo not given) were 6.96 and 5.63.
With `CCN(c1cc(-c2ccc(CN3CCN(C(=O)C=C4CCC(CNc5cccc6c5C(=O)N(C5CCC(=O)NC5=O)C6=O)CC4)CC3)cc2)cc(C(=O)NCc2c(C)cc(C)[nH]c2=O)c1C)C1CCOCC1` (stereo not given), the results for the pIC50 in test [1] and in test [2] were 6.16 and 6.72, respectively.
Taken in the same sequence, the figures for `CCN(c1cc(-c2ccc(CN3CCN(C(=O)CCC4CCC(CNc5cccc6c5C(=O)N(C5CCC(=O)NC5=O)C6=O)C4)CC3)cc2)cc(C(=O)NCc2c(C)cc(C)[nH]c2=O)c1C)C1CCOCC1` (stereo not given) were 7.52 and 7.70.
For the molecule `CCN(c1cc(-c2ccc(CN3CCN(C(=O)CCC4CCC(CNc5cccc6c5C(=O)N(C5CCC(=O)NC5=O)C6=O)CC4)CC3)cc2)cc(C(=O)NCc2c(C)cc(C)[nH]c2=O)c1C)C1CCOCC1` (stereo not given), the pIC50 in test [1] was 7.41; in test [2], 7.43.
Regarding `CCN(c1cc(-c2ccc(CN3CCN(C(=O)CN4CCCC(CNc5cccc6c5C(=O)N(C5CCC(=O)NC5=O)C6=O)C4)CC3)cc2)cc(C(=O)NCc2c(C)cc(C)[nH]c2=O)c1C)C1CCOCC1` (stereo not given), the pIC50 in test [1] is 6.35; in test [2], 6.66.
As to `CCN(c1cc(-c2ccc(CN3CCN(C(=O)/C=C/C4CCC(CNc5cccc6c5C(=O)N(C5CCC(=O)NC5=O)C6=O)C4)CC3)cc2)cc(C(=O)NCc2c(C)cc(C)[nH]c2=O)c1C)C1CCOCC1` (stereo not given), the results for the pIC50 in test [1] and in test [2] were 7.24 and 8.15, respectively.
As to `CCN(c1cc(-c2ccc(CN3CCN(C(=O)C4CCC(CNc5cccc6c5C(=O)N(C5CCC(=O)NC5=O)C6=O)CC4)CC3)cc2)cc(C(=O)NCc2c(C)cc(C)[nH]c2=O)c1C)C1CCOCC1` (stereo not given), the results for the pIC50 in test [1] and in test [2] were 7.47 and 7.74, respectively.
Taken in the same sequence, the figures for `CCN(c1cc(-c2ccc(CN3CCN(C(=O)CN4CC(CNc5cccc6c5C(=O)N(C5CCC(=O)NC5=O)C6=O)C4)CC3)cc2)cc(C(=O)NCc2c(C)cc(C)[nH]c2=O)c1C)C1CCOCC1` (stereo not given) were 6.02 and 5.71.
